From patent publication US20070249590A1, “Substituted indolo[2,3-a]pyrrolo[3,4-c]carbazole compounds useful in treating kinase disorders” (priority 2005, published 2007)

The compounds below were run against T1, JAK3 (JH1 and JH2 domain) (Homo sapiens, UniProt P52333) (assay: JAK3 Kinase Assay (ELISA of peptide substrate phosphorylation)). Details: purified JAK3 enzyme, 10 μM ATP, biotinylated peptide substrate, 1 hour at room temperature.
T1 sequence (P52333 521-1111 limits assumed): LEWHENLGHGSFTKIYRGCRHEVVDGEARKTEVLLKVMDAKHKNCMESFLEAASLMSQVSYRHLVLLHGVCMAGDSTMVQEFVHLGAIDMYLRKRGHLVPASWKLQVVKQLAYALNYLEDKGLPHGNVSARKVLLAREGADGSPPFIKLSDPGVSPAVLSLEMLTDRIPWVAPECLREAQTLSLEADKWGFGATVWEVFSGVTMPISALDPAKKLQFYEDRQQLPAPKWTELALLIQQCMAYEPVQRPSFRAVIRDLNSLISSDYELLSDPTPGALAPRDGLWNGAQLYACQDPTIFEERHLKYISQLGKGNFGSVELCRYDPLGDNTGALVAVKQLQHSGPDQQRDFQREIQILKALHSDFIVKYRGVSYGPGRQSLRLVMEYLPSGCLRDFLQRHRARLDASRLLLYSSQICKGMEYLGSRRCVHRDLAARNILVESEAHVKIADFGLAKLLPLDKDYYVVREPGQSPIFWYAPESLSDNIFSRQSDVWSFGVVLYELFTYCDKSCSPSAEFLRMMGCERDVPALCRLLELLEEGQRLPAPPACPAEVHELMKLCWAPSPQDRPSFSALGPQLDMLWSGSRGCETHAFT
Assay type: biochemical
In short: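 Sf21-baculovirus-expressed JAK3 (JH1+JH2), glutathione-bead purified, with biotinylated peptide substrate (in buffer containing 10 μM ATP) in HEPES pH 7.5/MgCl2/DTT, 1 h RT. Product was captured on Neutravidin, detected with HRP anti-phosphotyrosine (PY99)/TMB, OD 450/650 nm. Triplicate 16-point half-log series from 200 μM gave IC50; otherwise % inhibition at 1 μM.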

Row | SMILES | IC50
1 | O=C(NCc1ccc2c(c1)OCO2)OC1CCn2c3ccccc3c3c4c(c5c6ccccc6n(c5c32)C1)C(=O)NC4=O (stereo not drawn) [Cpd 46, 12,13-{2-[(benzo[1,3]dioxol-5-yl-methyl)carbamoyloxy]-butan-1,4-yl}-12,13-dihydro-5,7-dioxo-6H-indolo[2,3-a]pyrrolo[3,4-c]carbazole] | 66 nM
2 | O=C1NC(=O)c2c1c1c3cc(Br)ccc3n3c1c1c2c2ccccc2n1CC(O)CC3 (stereo not drawn) [Cpd 31, 3-bromo-12,13-(2-hydroxy-butan-1,4-yl)-12,13-dihydro-5,7-dioxo-6H-indolo[2,3-a]pyrrolo[3,4-c]carbazole] | 8 nM
3 | O=C1NC(=O)c2c1c1c3ccccc3n3c1c1c2c2ccccc2n1CC(OC(=O)N1CCN(CCO)CC1)C(O)C3 (stereo not drawn) [Cpd 104, 12,13-(2-{[4-(2-hydroxy-ethyl)piperazin-1-yl]carbonyloxy}-3-hydroxy-butan-1,4-yl)-12,13-dihydro-5,7-dioxo-6H-indolo[2,3-a]pyrrolo[3,4-c]carbazole] | 127 nM
4 | O=C1NCc2c1c1c3cc(NC4=NCCN4)ccc3n3c1c1c2c2ccccc2n1CC(O)C(O)C3 (stereo not drawn) [Cpd 206] | 49 nM
5 | O=C(NCCCN1CCOCC1)OC1CCn2c3ccccc3c3c4c(c5c6ccccc6n(c5c32)C1)C(=O)NC4=O (stereo not drawn) [Cpd 42, 12,13-{2-[(3-morpholin-4-yl-prop-1-yl)carbamoyloxy]-butan-1,4-yl}-12,13-dihydro-5,7-dioxo-6H-indolo[2,3-a]pyrrolo[3,4-c]carbazole] | 149 nM
6 | O=C1NCc2c1c1c3cc(/C=C/Cn4ccnc4)ccc3n3c1c1c2c2ccccc2n1CC(CO)C3 (stereo not drawn) [Cpd 219, 3-[(1E)-3-1H-imidazol-1-yl-prop-1-en-1-yl]-12,13-(2-hydroxymethyl-propan-1,3-yl)-6,7,12,13-tetrahydro-5-oxo-5H-indolo[2,3-a]pyrrolo[3,4-c]carbazole] | 14 nM
7 | CC(C)NCc1ccc2c(c1)c1c3c(c4c5ccccc5n5c4c1n2CC(CO)C5)CNC3=O (stereo not drawn) [Cpd 213, 3-(isopropylaminomethyl)-12,13-(2-hydroxymethyl-propan-1,3-yl)-6,7,12,13-tetrahydro-5-oxo-5H-indolo[2,3-a]pyrrolo[3,4-c]carbazole] | 241 nM
8 | O=C(NCc1ccncc1)OC1CCn2c3ccccc3c3c4c(c5c6ccccc6n(c5c32)C1)C(=O)NC4=O (stereo not drawn) [Cpd 47, 12,13-{2-[(pyridin-4-yl-methyl)carbamoyloxy]-butan-1,4-yl}-12,13-dihydro-5,7-dioxo-6H-indolo[2,3-a]pyrrolo[3,4-c]carbazole] | 30 nM
9 | CN(C)CCCN1CCN(C(=O)OC2Cn3c4ccccc4c4c5c(c6c7ccccc7n(c6c43)CC2O)C(=O)NC5=O)CC1 (stereo not drawn) [Cpd 97, 12,13-(2-{[4-(3-dimethylamino-prop-1-yl)piperazin-1-yl]carbonyloxy}-3-hydroxy-butan-1,4-yl)-12,13-dihydro-5,7-dioxo-6H-indolo[2,3-a]pyrrolo[3,4-c]carbazole] | 175 nM
10 | CN(C)C1CCN(C(=O)C2(O)Cn3c4ccccc4c4c5c(c6c7ccccc7n(c6c43)CC2O)C(=O)NC5=O)C1 (stereo not drawn) [Cpd 119, 12,13-{2-[(3-dimethylamino-pyrrolidin-1-yl)carbonyl]-2,3-dihydroxy-butan-1,4-yl}-12,13-dihydro-5,7-dioxo-6H-indolo[2,3-a]pyrrolo[3,4-c]carbazole] | 15 nM
11 | O=C(NCc1ccc2c(c1)OCO2)OC1Cn2c3ccccc3c3c4c(c5c6ccccc6n(c5c32)CC1O)C(=O)NC4=O (stereo not drawn) [Cpd 80, 12,13-{2-[(benzo[1,3]dioxol-5-yl-methyl)carbamoyloxy]-3-hydroxy-butan-1,4-yl}-12,13-dihydro-5,7-dioxo-6H-indolo[2,3-a]pyrrolo[3,4-c]carbazole] | 100 nM

Next, values leading:

Row | IC50 | SMILES
12 | 69 nM | CN(C)CCNC(=O)OCC1(O)Cn2c3ccccc3c3c4c(c5c6ccccc6n(c5c32)C1)C(=O)NC4 (stereo not drawn) [Cpd 173, 12,13-{2-hydroxy-2-[(2-dimethylamino-ethyl)carbamoyloxymethyl]-propan-1,3-yl}-6,7,12,13-tetrahydro-5-oxo-5H-indolo[2,3-a]pyrrolo[3,4-c]carbazole]
13 | 42 nM | CN1CCN(CC(=O)Nc2ccc3c(c2)c2c4c(c5c6ccccc6n6c5c2n3CC(O)C(O)C6)CNC4=O)CC1 (stereo not drawn) [Cpd 205, 3-{[(4-methyl-piperazin-1-yl)methylcarbonyl]amino}-12,13-(2,3-dihydroxy-butan-1,4-yl)-6,7,12,13-tetrahydro-5-oxo-5H-indolo[2,3-a]pyrrolo[3,4-c]carbazole]
14 | 144 nM | CN1CCN(CCCNC(=O)OC2Cn3c4ccccc4c4c5c(c6c7ccccc7n(c6c43)CC2O)C(=O)NC5=O)CC1 (stereo not drawn) [Cpd 90, 12,13-(2-{[3-(4-methyl-piperazin-1-yl)prop-1-yl]carbamoyloxy}-3-hydroxy-butan-1,4-yl)-12,13-dihydro-5,7-dioxo-6H-indolo[2,3-a]pyrrolo[3,4-c]carbazole]
15 | 237 nM | CN(C)CCNC(=O)/C=C/c1ccc2c(c1)c1c3c(c4c5ccccc5n5c4c1n2CC(CO)C5)CNC3=O (stereo not drawn) [Cpd 222, 3-{(2E)-2-[(2-dimethylamino-ethyl)carbamoyl]ethenyl}-12,13-(2-hydroxymethyl-propan-1,3-yl)-6,7,12,13-tetrahydro-5-oxo-5H-indolo[2,3-a]pyrrolo[3,4-c]carbazole]
16 | 14 nM | CC(C)NC(=O)OC1Cn2c3ccccc3c3c4c(c5c6ccccc6n(c5c32)CC1O)C(=O)NC4=O (stereo not drawn) [Cpd 85, 12,13-[2-(prop-2-yl-carbamoyloxy)-3-hydroxy-butan-1,4-yl]-12,13-dihydro-5,7-dioxo-6H-indolo[2,3-a]pyrrolo[3,4-c]carbazole]
17 | 1010 nM | COc1ccc(CCNC(=O)OCC2Cn3c4ccccc4c4c5c(c6c7ccccc7n(c6c43)C2)C(=O)NC5)cc1OC (stereo not drawn) [Cpd 161, 12,13-(2-{[2-(3,4-dimethoxy-phenyl)ethyl]carbamoyloxymethyl}-propan-1,3-yl)-6,7,12,13-tetrahydro-5-oxo-5H-indolo[2,3-a]pyrrolo[3,4-c]carbazole]
18 | 90 nM | O=C1NCc2c1c1c3cc(/C=C/n4ccnc4)ccc3n3c1c1c2c2ccccc2n1CC(CO)C3 (stereo not drawn) [Cpd 220, 3-[(2E)-2-1H-imidazol-1-yl-ethenyl]-12,13-(2-hydroxymethyl-propan-1,3-yl)-6,7,12,13-tetrahydro-5-oxo-5H-indolo[2,3-a]pyrrolo[3,4-c]carbazole]
19 | 160 nM | O=C(NCCc1ccccn1)OCC1(O)Cn2c3ccccc3c3c4c(c5c6ccccc6n(c5c32)C1)C(=O)NC4 (stereo not drawn) [Cpd 139]
20 | 29 nM | COCCNC(=O)OC1Cn2c3ccccc3c3c4c(c5c6ccccc6n(c5c32)CC1O)C(=O)NC4=O (stereo not drawn) [Cpd 83, 12,13-{2-[(2-methoxy-ethyl)carbamoyloxy]-3-hydroxy-butan-1,4-yl}-12,13-dihydro-5,7-dioxo-6H-indolo[2,3-a]pyrrolo[3,4-c]carbazole]
21 | 1000 nM | O=C1NC(=O)c2c1c1c3ccccc3n3c1c1c2c2ccccc2n1CC(OC(=O)N1CCN(CCc2ccccc2)CC1)CC3 (stereo not drawn) [Cpd 65, 12,13-(2-{[4-(2-phenyl-ethyl)piperazin-1-yl]carbonyloxy}-butan-1,4-yl)-12,13-dihydro-5,7-dioxo-6H-indolo[2,3-a]pyrrolo[3,4-c]carbazole]
22 | 65 nM | CN(C)c1ccc(CNC(=O)OC2Cn3c4ccccc4c4c5c(c6c7ccccc7n(c6c43)CC2O)C(=O)NC5=O)cc1 (stereo not drawn) [Cpd 93, 12,13-{2-[(4-dimethylamino-benzyl)carbamoyloxy]-3-hydroxy-butan-1,4-yl}-12,13-dihydro-5,7-dioxo-6H-indolo[2,3-a]pyrrolo[3,4-c]carbazole]
23 | 70 nM | CC(C)OCc1ccc2c(c1)c1c3c(c4c5cc(Br)ccc5n5c4c1n2CC(CO)C5)C(=O)NC3 (stereo not drawn) [Cpd 209, 3-bromo-9-(isopropoxymethyl)-12,13-(2-hydroxymethyl-propan-1,3-yl)-6,7,12,13-tetrahydro-5-oxo-5H-indolo[2,3-a]pyrrolo[3,4-c]carbazole]
24 | 578 nM | O=C1NCc2c1c1c3ccccc3n3c1c1c2c2ccccc2n1CC(COC(=O)N1CCN(CCOCCO)CC1)C3 (stereo not drawn) [Cpd 166, 12,13-[2-({4-[2-(2-hydroxy-ethoxy)ethyl]piperazin-1-yl}carbonyloxymethyl)-propan-1,3-yl]-6,7,12,13-tetrahydro-5-oxo-5H-indolo[2,3-a]pyrrolo[3,4-c]carbazole]
25 | 39 nM | O=C1NCc2c1c1c3ccccc3n3c1c1c2c2ccccc2n1CC/C=C\CC3 [Cpd 5, 12,13-(hex-3-en-1,6-yl)-6,7,12,13-tetrahydro-5-oxo-5H-indolo[2,3-a]pyrrolo[3,4-c]carbazole]
26 | 33 nM | Cc1ccc(CNC(=O)OC2Cn3c4ccccc4c4c5c(c6c7ccccc7n(c6c43)CC2O)C(=O)NC5=O)o1 (stereo not drawn) [Cpd 86, 12,13-(2-{[(5-methyl-furan-2-yl)methyl]carbamoyloxy}-3-hydroxy-butan-1,4-yl)-12,13-dihydro-5,7-dioxo-6H-indolo[2,3-a]pyrrolo[3,4-c]carbazole]
27 | 543 nM | CN(C(=O)OC1CCn2c3ccccc3c3c4c(c5c6ccccc6n(c5c32)C1)C(=O)NC4=O)C1CCN(Cc2ccccc2)C1 (stereo not drawn) [Cpd 61, 12,13-{2-[N-methyl-N-(1-benzyl-pyrrolidin-3-yl)carbamoyloxy]-butan-1,4-yl}-12,13-dihydro-5,7-dioxo-6H-indolo[2,3-a]pyrrolo[3,4-c]carbazole]
